Columns and labels:
3×Tg-AD mice [1] = test: Nesting test; format: in vivo; details: 3×Tg AD mouse model; 20 μg/g I.P. once a week, 4 weeks
Excerpt: (§1) Six-month-old C57/BL6 (WT) and 3×Tg-AD mice with an average weight of 24 g from Jackson Laboratory (Bar Harbor, Maine, United States of America) were used. The 3×Tg-AD mice in hybrid 129/C57BL/6 background contain two mutant human transgenes, hAPP harboring Swedish mutation (hAPPswe) and mutant htau (htau301L) under a neuron-specific promoter, and also contain the knock-in mutant presenilin 1 (PS1M146V). See Oddo et al. (2003) Neuron 39:409-421). 3×Tg-AD mice were received from Jackson Laboratory as Psen1 B6:129-Psen1<tmMpm>Tg(APPSwetauP301L)1Lfa/J and the wild type control as SF2: (B6129SF1/J+p+Tyr-c+Mgf-SIJ)F2. All mice were subjected to two weeks of training for familiarizing behavioral test procedures. […]
Nesting test: Similar to the burrowing test, 2.5 hours before the start of the dark cycle, mice were housed singly in cages containing one 5 cm square of pressed cotton (‘Nestlet’, which the mice normally received as part of their environmental enrichment) with which to make a nest. The condition of each nest was assessed after 2 hours, according to a four-point scale as follows: • 1=Nestlet not noticeably touched (>90% intact). • 2=Nestlet partially tom up (70-90% remaining intact). • 3=Mostly shredded but often no identifiable nest site (<50% remaining intact). • 4=An identifiable nest (<10% remaining intact).

3×Tg-AD mice [2] = test: Burrowing test; format: in vivo; details: 3×Tg AD mouse model; 20 μg/g I.P. once a week, 4 weeks
Excerpt: as §1, with “procedures. Subsequently, mice were assayed to establish a baseline of behavior tests before ZCL compound treatment. Then, mice were separated into three treatment groups (Control, ZCL278 and ZCL279). Both ZCL278 and ZCL279 were dissolved in sesame oil with 5% DMSO and each treatment was administrated via an intraperitoneal injection. All treatment groups of mice were treated once a week. Control group was treated with 130 μl 5% DMSO in sesame oil.” for “procedures.”
Burrowing test: At least 2.5 hours before the start of the dark cycle (4:30 pm), mice from each selected treatment group were housed in individual cages. […] After 2 hours, the food left in the tube was measured.

3×Tg-AD mice [3] = test: Morris water maze test; format: in vivo
Excerpt: as §1, with “procedures. Subsequently, mice were assayed to establish a baseline of behavior tests before ZCL compound treatment. Then, mice were separated into three treatment groups (Control, ZCL278 and ZCL279).” for “procedures.”
Mice were trained to swim to a 14 cm diameter circular clear Plexiglas platform submerged 1.5 cm beneath the surface of the water and invisible to the mice while swimming. […] Retention of the spatial training was assessed at 1.5 hr and again at 24 hr after the last training trial. […] Mice were monitored by a camera mounted in the ceiling directly above the pool, and all trials were stored on videotape for subsequent analysis.

Cdc42 [4] = biological target: T1, Cdc42 (Homo sapiens, UniProt P60953); test: Cdc42-GEF-assay, additional compound screening; format: biochemical; set-up: purchased Cytoskeleton Inc; details: percentages of ZCL278 activity normalized to batch; more than 100% = more potent activator; Table 9
Description: (§2) Rho-GEF IC50 Assay: Rho-GEF assay (Cytoskeleton Inc., Denver, Colorado, United States of America) was conducted per manufacturer's instructions (λex=360 nm, λem=460 nm). Briefly, a solution (50 μL) of purified Rho GTPase (1 μM) and mant-GTP (1.5 μM) with or without compound (0.001-500 μM) was prepared and the absorbance monitored for 10-30 min to obtain the background/baseline. The addition of purified GEF/DH domain (0.08-0.2 μM) was carried out simultaneously and the absorbance was recorded for 30-45 min. The linear slope following the addition of the GEF was calculated and expressed as percentage of the control and plotted on an IC50 curve.
Cdc42 (1 μM) was incubated with mant-GTP (1.5 μM) and varying concentrations of ZCL278, ZCL279, or ZCL367 (5-500 μM). Fluorescent readings were taken every minute for 10 m to acquire the baseline. The GEF/DH domain (0.08-0.2 μM) was added followed by readings taken every minute for another 30 m. The linear phase was calculated from within the time period of 12-22 m. Cdc42 (1 μM) was incubated with mant-GTP (1.5 μM) and varying concentrations of ZCL278, ZCL279, or ZCL367 (5-500 μM). Fluorescent readings were taken every minute for 30 m to monitor the binding of mant-GTP in the absence of GEF/DH domain.
Cdc42-GEF-assays were conducted on additional screening compounds in batches of 9 compounds per batch as described above in Example 2 using ZCL278 and ZCL367 as standards. Screening compounds were taken from the Specs Chemistry Database of 197,000 compounds for small molecule or the National Cancer Institute Compound Library. […] These compounds promote Cdc42-mantGTP binding without GEF. It is possible that these compounds can inhibit Cdc42-mantGTP binding with GEF. […] These compounds appear to have activity like ZCL279. […] However, upon the addition of GEF, the compounds appear to facilitate the binding of mantGTP to Cdc42 (high assay slope, relative to ZCL278)
Target sequence in this assay (P60953 whole entry, the tested form may be a part): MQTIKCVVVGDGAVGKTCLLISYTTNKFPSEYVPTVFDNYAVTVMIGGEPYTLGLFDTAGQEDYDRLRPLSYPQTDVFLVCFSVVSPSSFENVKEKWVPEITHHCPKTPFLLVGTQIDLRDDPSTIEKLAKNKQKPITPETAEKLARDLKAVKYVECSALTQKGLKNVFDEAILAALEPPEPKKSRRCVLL

Cdc42 [5] = biological target: T1, Cdc42; test: Rho-GEF IC50 assay (GEF/DH domain-mediated mant-GTP binding); format: biochemical; set-up: purchased Cytoskeleton Inc; details: read-out: IC50, GEF/DH domain-mediated mant-GTP binding/Cdc42 activation
Description: as §2
Target sequence in this assay (P60953 whole entry, the tested form may be a part): as above

Cdc42 [6] = biological target: T1, Cdc42; details: in the presence of activating upstream signaling compounds; cited from earlier work
Target sequence in this assay (P60953 whole entry, species assumed, the tested form may be a part): as the sequence (P60953 whole entry, the tested form may be a part) above

| Structure (SMILES) | instinctual behavior: nesting behavior (3×Tg-AD mice [1]) | instinctual behavior: food burrowing (3×Tg-AD mice [2]) | spatial memory ability compared with WT mice (3×Tg-AD mice [3]; 3×Tg AD mice, Day 4) | spatial memory ability (latency in finding the submerged platform) (3×Tg-AD mice [3]; AD mouse model) | % ZCL278 (activator activity) (Cdc42 [4]) [%] | IC50 (Cdc42 [5]) [µM] | effect on Cdc42 (Cdc42 [6]) |
| --- | --- | --- | --- | --- | --- | --- | --- |
| O=S(=O)(Nc1ccccc1O)c1ccc2oc3ccc(S(=O)(=O)Nc4ccccc4O)cc3c2c1 [ZCL279, N^2,N^8-bis(2-hydroxyphenyl)dibenzo[b,d]furan-2,8-disulfonamide] | improve instinctual behavior | improve instinctual behavior | appeared similar to WT mice | improves spatial memory ability |  |  |  |
| Cc1cc(C)nc(NS(=O)(=O)c2ccc(NC(=S)NC(=O)COc3ccc(Br)cc3Cl)cc2)n1 [ZCL278, 4-(3-(2-(4-bromo-2-chloro-phenoxy)-acetyl)-thioureido)-N-(4,6-dimethylpyrimidin-2-yl)-benzenesulfonamide] |  |  |  |  | 100 | 7.52 | inhibit Cdc42 |

From US12285393B2, “Roles of modulators of intersectin-Cdc42 signaling in Alzheimer's disease” (priority 2017, dated 2025)
